The source made the active and inactive calls. The calls are words filed in the database; no cut-off is given here.
Tests used:
HT-29 = assay: Growth inhibition of human HT-29 cells at 0.016 to 4 uM incubated for 72 hrs by ATP detection based luminescent assay; type: functional, cell-based
NCI-H460 = assay: Growth inhibition of human H460 cells at 0.016 to 4 uM incubated for 72 hrs by ATP detection based luminescent assay; type: functional, cell-based
MIA PaCa-2 = assay: Growth inhibition of human MIAPaCa2 cells at 0.016 to 4 uM incubated for 72 hrs by ATP detection based luminescent assay; type: functional, cell-based
NCI-N87 = assay: Growth inhibition of human NCI-N87 cells at 0.016 to 4 uM incubated for 72 hrs by ATP detection based luminescent assay; type: functional, cell-based
[1] = Growth inhibition of human BT/LapR1.0 cells incubated for 72 hrs by ATP detection based luminescent assay; type: functional
A549 = assay: Growth inhibition of human A549 cells at 0.016 to 4 uM incubated for 72 hrs by ATP detection based luminescent assay; type: functional, cell-based
ASPC1 = assay: Growth inhibition of human AsPC1 cells at 0.016 to 4 uM incubated for 72 hrs by ATP detection based luminescent assay; type: functional, cell-based
MRC5 = assay: Growth inhibition of human MRC5 cells at 0.016 to 4 uM incubated for 72 hrs by ATP detection based luminescent assay; type: cell-based; conditions: mrc5, 72 h
HepG2 = assay: Growth inhibition of human HepG2 cells at 0.016 to 4 uM incubated for 72 hrs by ATP detection based luminescent assay; type: functional, cell-based
Huh-7 = assay: Growth inhibition of human HuH7 cells at 0.016 to 4 uM incubated for 72 hrs by ATP detection based luminescent assay; type: functional, cell-based
BGC-823 = assay: Growth inhibition of human BGC823 cells at 0.016 to 4 uM incubated for 72 hrs by ATP detection based luminescent assay; type: functional, cell-based
COLO 205 = assay: Growth inhibition of human COLO205 cells at 0.016 to 4 uM incubated for 72 hrs by ATP detection based luminescent assay; type: functional, cell-based
[2] = Growth inhibition of human WI38 cells at 0.016 to 4 uM incubated for 72 hrs by ATP detection based luminescent assay; type: cell-based; conditions: wi-38, 72 h
[3] = Growth inhibition of human BT474 cells incubated for 72 hrs by ATP detection based luminescent assay; type: functional, cell-based; conditions: BT-474, 72 h
Homo sapiens = species: Homo sapiens; assay: Inhibition of HSP70 (unknown origin) at 200 uM pre-incubated for 30 mins followed by ATP addiction and measured after 3 hrs by malachite green reagent based colorimetric assay
[4] = Growth inhibition of human SKBR3 cells at 5 uM incubated for 72 hrs by ATP detection based luminescent assay; type: functional; conditions: SK-BR-3, 72 h, read-out: GI
[5] = Growth inhibition of human BT474 cells at 5 uM incubated for 72 hrs by ATP detection based luminescent assay; type: functional; conditions: BT-474, 72 h, read-out: GI
MDA-MB-361 = assay: Growth inhibition of human MDA-MB-361 cells at 5 uM incubated for 72 hrs by ATP detection based luminescent assay; type: functional; conditions: MDA-MB-361, 72 h, read-out: GI
MDA-MB-453 = assay: Growth inhibition of human MDA-MB-453 cells at 5 uM incubated for 72 hrs by ATP detection based luminescent assay; type: functional; conditions: MDA-MB-453, 72 h, read-out: GI
[6] = Growth inhibition of human SK/LapR1.0 cells at 5 uM incubated for 72 hrs by ATP detection based luminescent assay; type: functional; conditions: read-out: GI
[7] = Growth inhibition of human BT/LapR1.0 cells at 5 uM incubated for 72 hrs by ATP detection based luminescent assay; type: functional; conditions: read-out: GI
Mus musculus [8] = assay: Acute toxicity in male KM mouse assessed as mouse mortality at 1555 mg/kg dosed as single oral gavage measured after 5 mins during day 1 to day 14 post dose; type: organism-based; set-up: dose 1555 mg/kg, route oral; conditions: in vivo
Mus musculus [9] = assay: Acute toxicity in male KM mouse assessed as mouse mortality at 520 mg/kg dosed as single oral gavage measured during day 1 to day 14 post dose; type: organism-based; set-up: dose 520 mg/kg, route oral; conditions: in vivo
Mus musculus [10] = assay: Acute toxicity in male KM mouse assessed as mouse mortality at 1080 mg/kg dosed as single oral gavage measured during day 1 to day 14 post dose; type: organism-based; set-up: dose 1080 mg/kg, route oral; conditions: in vivo
Mus musculus [11] = assay: Acute toxicity in female KM mouse assessed as induction of organ abnormalities mortality at 520 to 1555 mg/kg dosed as single oral gavage measured during day 1 to day 14 post dose; type: organism-based; set-up: dose 520-1555 mg/kg, route oral; conditions: in vivo
Mus musculus [12] = assay: Acute toxicity in female KM mouse assessed as mouse mortality at 520 mg/kg dosed as single oral gavage measured during day 1 to day 14 post dose; type: organism-based; set-up: dose 520 mg/kg, route oral; conditions: in vivo
[13] = Binding affinity to human HSP70 at 25 degC by surface plasmon resonance assay
Mus musculus [14] = assay: Acute toxicity in female KM mouse assessed as mouse mortality at 1555 mg/kg dosed as single oral gavage measured after 5 mins during day 1 to day 14 post dose; type: organism-based; set-up: dose 1555 mg/kg, route oral; conditions: in vivo
Mus musculus [15] = assay: Acute toxicity in female KM mouse assessed as mouse mortality at 1296 mg/kg dosed as single oral gavage measured during day 1 to day 14 post dose; type: organism-based; set-up: dose 1296 mg/kg, route oral; conditions: in vivo
Mus musculus [16] = assay: Acute toxicity in male KM mouse assessed as induction of organ abnormalities mortality at 520 to 1555 mg/kg dosed as single oral gavage measured during day 1 to day 14 post dose; type: organism-based; set-up: dose 520-1555 mg/kg, route oral; conditions: in vivo
Mus musculus [17] = assay: Acute toxicity in female KM mouse assessed as mouse mortality at 625 mg/kg dosed as single oral gavage measured during day 1 to day 14 post dose; type: organism-based; set-up: dose 625 mg/kg, route oral; conditions: in vivo

| SMILES | inhibition (Homo sapiens) [%] | Kd [13] [nM] | growth inhibition (GI) (HT-29) | growth inhibition (GI) (NCI-H460) | growth inhibition (GI) (MIA PaCa-2) | growth inhibition (GI) (NCI-N87) | IC50 [1] [nM] | growth inhibition (GI) (A549) | growth inhibition (GI) (ASPC1) | growth inhibition (GI) (MRC5) | growth inhibition (GI) (HepG2) | growth inhibition (GI) (Huh-7) | growth inhibition (GI) (BGC-823) | growth inhibition (GI) (COLO 205) | growth inhibition (GI) [2] | IC50 [3] [nM] | inhibition of growth at 5 µM [4] [%] | inhibition of growth at 5 µM [5] [%] | inhibition of growth at 5 µM (MDA-MB-361) [%] | inhibition of growth at 5 µM [6] [%] | also measured |
| --- | --- | --- | --- | --- | --- | --- | --- | --- | --- | --- | --- | --- | --- | --- | --- | --- | --- | --- | --- | --- | --- |
| CSc1nccc(N2CCC(N(C)Cc3c(F)cccc3Cl)CC2)n1 | 20.4 | – | Active | Active | Active | Active | 940 | Active | Active | Non-toxic | Active | Active | Active | Active | Non-toxic | 1040 | – | – | – | – | – |
| CSc1nccc(N2CCC(N(C)Cc3c(Cl)cccc3Cl)CC2)n1 | 12.8 | – | Active | Active | Active | Active | 700 | Active | Active | Non-toxic | Active | Active | Active | Active | Non-toxic | 780 | 85.9 | 73.1 | 53.2 | 71 | inhibition of growth at 5 µM (MDA-MB-453): 79.2%; inhibition of growth at 5 µM [7]: 70% |
| CSc1nccc(N2CCC(N(C)Cc3ccc(C#N)cc3)CC2)n1 | 8.14 | 246 | Active | Active | Active | Active | 1470 | Active | Active | Non-toxic | Active | Active | Active | Active | Non-toxic | 1410 | 83.4 | 75.5 | 46.9 | 86.1 | Activity (Mus musculus [8]): Toxic; Activity (Mus musculus [9]): Non-toxic; Activity (Mus musculus [10]): Toxic; Activity (Mus musculus [11]): Non-toxic; Activity (Mus musculus [12]): Non-toxic; Activity (Mus musculus [14]): Toxic; Activity (Mus musculus [15]): Toxic; inhibition of growth at 5 µM (MDA-MB-453): 82.4%; inhibition of growth at 5 µM [7]: 76.2%; Activity (Mus musculus [16]): Non-toxic; Activity (Mus musculus [17]): Non-toxic |
| CSc1ncc(CN2CCC(N(C)Cc3ccc(C)cc3)CC2)s1 | 10.6 | 200 | – | – | – | – | – | – | – | – | – | – | – | – | – | – | – | – | – | – | – |
| CSc1ncc(CN2CCC(N(C)Cc3cccc(Cl)c3)CC2)s1 | – | 245 | – | – | – | – | – | – | – | – | – | – | – | – | – | – | – | – | – | 7.3 | – |
| CSc1nccc(N2CCC(N(C)Cc3ccc(F)cc3)CC2)n1 | 7.73 | 204 | – | – | – | – | – | – | – | – | – | – | – | – | – | – | – | – | 46 | – | – |
| COc1nccc(N2CCC(N(C)Cc3ccc(F)cc3)CC2)n1 | – | 281 | – | – | – | – | – | – | – | – | – | – | – | – | – | – | – | – | – | 9 | – |
| N#Cc1ccc(COC[C@H]2O[C@@H](n3c(NCc4ccc(Cl)c(Cl)c4)nc4c(N)ncnc43)[C@H](O)[C@@H]2O)cc1 | 43 | 206 | – | – | – | – | – | – | – | – | – | – | – | – | – | – | – | – | – | – | – |

Now from value to compound, other results behind:

| inhibition (Homo sapiens) [%] | Kd [13] [nM] | SMILES | growth inhibition (GI) (HT-29) | growth inhibition (GI) (NCI-H460) | growth inhibition (GI) (MIA PaCa-2) | growth inhibition (GI) (NCI-N87) | IC50 [1] [nM] | growth inhibition (GI) (A549) | growth inhibition (GI) (ASPC1) | growth inhibition (GI) (MRC5) | growth inhibition (GI) (HepG2) | growth inhibition (GI) (Huh-7) | growth inhibition (GI) (BGC-823) | growth inhibition (GI) (COLO 205) | growth inhibition (GI) [2] | IC50 [3] [nM] | inhibition of growth at 5 µM [4] [%] | inhibition of growth at 5 µM [5] [%] | inhibition of growth at 5 µM (MDA-MB-361) [%] | inhibition of growth at 5 µM [6] [%] | also measured |
| --- | --- | --- | --- | --- | --- | --- | --- | --- | --- | --- | --- | --- | --- | --- | --- | --- | --- | --- | --- | --- | --- |
| 11.6 | – | CSc1nccc(N2CCC(N(C)Cc3ccccc3Cl)CC2)n1 | Active | Active | Active | Active | 1700 | Active | Active | Non-toxic | Active | Active | Active | Active | Non-toxic | 1990 | 22.2 | 21.3 | 36.2 | 34.2 | inhibition of growth at 5 µM (MDA-MB-453): 45.3%; inhibition of growth at 5 µM [7]: 17.5% |
| 16.7 | – | CSc1nccc(N2CCC(N(C)Cc3ccccc3C#N)CC2)n1 | – | – | – | – | – | – | – | – | – | – | – | – | – | – | 87.6 | 74.2 | 64.1 | 80.7 | inhibition of growth at 5 µM (MDA-MB-453): 68.7%; inhibition of growth at 5 µM [7]: 68.1% |
| 6.11 | – | COc1nccc(N2CCC(N(C)Cc3ccccc3Cl)CC2)n1 | – | – | – | – | – | – | – | – | – | – | – | – | – | – | 41.4 | 36.7 | 45.1 | 35.8 | inhibition of growth at 5 µM (MDA-MB-453): 60.8%; inhibition of growth at 5 µM [7]: 28.6% |
| 8.28 | – | CSc1nccc(N2CCC(N(C)Cc3ccc(Cl)cc3Cl)CC2)n1 | Active | Active | Active | Active | 1680 | Active | Active | Non-toxic | Active | Active | Active | Active | Non-toxic | 1620 | – | – | – | – | – |

Source: ChEMBL document CHEMBL3414474, “Design and synthesis of piperidine derivatives as novel human heat shock protein 70 inhibitors for the treatment of drug-resistant tumors” (Eur J Med Chem, 2015)
